Values quoted from earlier work as cited in patent US7479481B2, “Treatment of ocular diseases and disorders using lantibiotic compositions” (Molichem Medicines, Inc., priority 2004, dated 2009).

Tested on: clatharin-coated vesicle acidification
Conditions: clatharin-coated vesicles; Stone et al., J. Biol. Chem. 259: 2701-2703 (1984)

In the case of duramycin, the “inhibition of the proton translocation facilitated by chloride translocation” value is listed as “up to 50%”.
